From patent US6638974B1, “Ascorbyl esters for the treatment of cancer” (University of South Florida, priority 1999, dated 2003)

How the values were obtained:
[1] = test system: PDGF-R; experiment: PDGF-R expression by Western blot, PANC-1; format: cell-based, human; conditions: 150 μM, 24 hours
[2] = test system: IGF1-R; experiment: IGF1-R expression by Western immunoblotting, U-373; format: cell-based, human; conditions: 75 μM, 24 hours, MEM+10% FBS
Protocol: (§1) The T98G and U-373 cells were cultured for 24 hours in MEM+10% FBS and when confluent were treated with 100 μM and 75 μM, Asc-S for 24 hours, respectively. […] In addition, it was also observed that the inhibition of IGF1-R expression was dose and time dependent. The T98G cells culture in MEM+10% FBS and treated with different concentrations of Asc-S, e.g. 50, 75, 100, 125, 150 and 175 μM for 24 hours, inhibited IGF1-R in a dose dependent fashion (FIG. 8C). The T98G cells treated with 100 μM Asc-S for different time points, e.g. 1, 3, 6, 12 and 24 hours inhibited IGF1-R in a time dependent manner (FIG. 8D). IGF1-R expression was evaluated by Western immunoblotting technique with rabbit-antihuman IGF1-R antibodies (Upstate Biotechnology, Lake Placid, N.Y.) with HRP conjugated anti-rabbit secondary antibody.
(§2) The inhibition of IGF1-R expression was also dose and time dependent. […] The following are depicted in FIG. 8B: Lane 1: P6 positive control for IGF1-R […]; Lane 2: untreated T98G cells; Lane 3: Asc-S (125 μM) treated T98G cells. […]

[3] = test system: PC-1 cells; experiment: MTT cell growth and viability assay, PC-1; format: cell-based, hamster; conditions: different concentrations of Asc-S, 24 hours
Protocol: Cell Growth and Vitality: The effect of Asc-S on PANC-1 and PC-1 cell growth and viability was evaluated by 3-(4,5-dimethylthiazol-2yl)-2,5-diphenyl-tetrazoliumbromide (MTT) (Sigma Chemical Co., St. Louis, Md.) assay and the details of the procedure are as described earlier (Naidu et al., 1993a) PANC-1 cells were seeded at 2.5×10^4 viable cells well in 0.1 ml MEM supplemented with 10% FBS or serum free MEM with 15 nM human recombinant IGF-1 in 96 multiwell tissue culture plates. The following day when the cells were nearly confluent, the medium was replaced with fresh medium and 50, 75, 100, 125, 150, 175 and 200 μM Asc-S were added and incubated in a CO2 incubator at 37° C. for 24 hours with respective untreated controls.
(§3) The effect of Asc-S on the proliferation of PC-1 and PANC-1 pancreatic tumor cells was studied using MTT assay. The expression of IGF1-R was analyzed by Western blot analysis, using polyclonal IGF1-R antibody (Upstate Biotech). Apoptosis was assessed by in situ hybridization using TUNEL reaction. […] This was associated with significant decrease in IGF1-R expression and increased apoptotic rate as compared to the control. Statistical analysis on the MTT assay was done using Student's T-test.

[4] = test system: T98G cells; experiment: MTT cell proliferation assay, T98G; format: cell-based, human; conditions: for inhibition at 50 µM / inhibition at 100 µM / inhibition at 175 µM: Homo sapiens, T98G
Protocol: T98G cell proliferation: Murine (G26) and human glioma (U-373) cell proliferation was inhibited following exposure to ascorbyl esters (Naidu et al., 1993a and 1993b). The cell proliferation was assessed by [^3H] thymidine incorporation and MTT assay (Naidu et al., 1993a, 1993b and 1996). […] The T98G cells were cultured for 24 hours in MEM+10% FBS, and, when confluent, were treated with 0 (untreated control), 50, 75, 100, 125, 150 and 175 μM Asc-S. Appropriate untreated controls were included. The cell proliferation was measured by MTT assay.

[5] = test system: IGF1-R; experiment: IGF1-R expression by Western blotting, PC-1; format: cell-based, hamster; conditions: 150 μM, 24 hours, vs untreated control
Protocol: This inhibition was dose and time dependent. In fact the exposure of PANC-1 cells to different concentrations of Asc-S (e.g. 50, 75, 100, 125, 150, and 200 μM) for 24 hours in the same conditions, inhibited IGF1-R expression in a dose dependent fashion (FIG. 2A).
as §3

[6] = test system: T98G cells; experiment: Apoptosis by in situ TUNEL assay, T98G; format: cell-based, human; conditions: 100 μM, 24 hours
Protocol: Apoptosis by in situ TUNNEL assay: This experiment was designed to test the hypothesis that down regulation of IGF1-R facilitates apoptosis in T98G cells. […] In addition, to test whether Asc-S treatment induces apoptosis in normal cells, rat astrocyte cells in primary culture were treated with 100 μM Asc-S for 24 hours. […] The increased apoptosis in the Asc-S treated T98G cells is due to down regulation of IGF1-R.
In FIG. 10, apoptosis was evaluated by in situ immunohistochemical detection and quantification at a single cell level.

[7] = test system: IGF1-R; experiment: IGF1-R expression by Western immunoblotting, T98G; format: cell-based, human; conditions: 100 μM, 24 hours, MEM+10% FBS
Protocol: as §1, §2

## CCCCCCCCCCCCCCCCCC(=O)OC[C@H](O)[C@H]1OC(=O)C(O)=C1O [Asc-S, Ascorbyl stearate]
[1]
  PDGF-R expression, PANC-1: did not affect
[2]
  IGF1-R expression, U-373 cells: significantly down regulated
[3]
  PC-1 cell proliferation (MTT assay): dose dependent inhibition of PC-1 cell proliferation
[4]; 50-175 μM Asc-S, 24 hours
  T98G cell proliferation (MTT assay): inhibited cell proliferation in a dose dependent manner
[4]; cultured with FBS, 50 μM
  inhibition at 50 µM: 8.7%
[4]; cultured with FBS, 100 μM
  inhibition at 100 µM: 38.5%
[4]; cultured with FBS, 175 μM
  inhibition at 175 µM: 87.2%
[4]; with IGF-1, 50 μM
  inhibition at 50 µM: 15.3%
[4]; with IGF-1, 100 μM
  inhibition at 100 µM: 54.2%
[4]; with IGF-1, 175 μM
  inhibition at 175 µM: 87.7%
[5]
  IGF1-R expression, PC-1 cells (Western blotting): significantly lower number of receptors
[6]
  apoptosis (in situ TUNEL), T98G cells: significant increase in apoptosis
[7]
  IGF1-R expression, T98G cells: significantly down regulated
